Measurements from patent publication US20170247645A1, “ENCAPSULATED FRAGRANCE MIXTURES” (Symrise AG, priority 2014, published 2017).

Key:
[1] = log Kow (octanol/water partition coefficient); type: physicochemical; details: 1-octanol/water
Source text: In a further preferred embodiment, the individual fragrances of the fragrance mixture of the invention have a log Kow value of 1 to 10, preferably of 1.5 to 8, more preferably of 2 to 5.5.
The log Kow (octanol/water partition coefficient) is a measure of the lipophilicity of a substance. In terms of calculation, it is the partition coefficient Kow of a substance in a mixture of 1-octanol and water. Kow is greater than one when a substance has better solubility in fat-like solvents such as n-octanol, and less than one when it has better solubility in water. Correspondingly, log Kow is positive for lipophilic substances and negative for hydrophilic substances.

[2] = Odor threshold value (OTV) in air
Source text: The odor threshold is the threshold at which a fragrance or odorant is olfactorily perceived by an organism. The odor threshold value, OTV for short, is that minimum concentration of a particular gaseous, sensorily active substance in the surrounding medium that this lifeform is just able to perceive through its sense of smell. In the present invention, preference is given to fragrances having a (very) low odor threshold value. The lower this is, the lower the concentration at which the fragrance is then perceived.

| SMILES | log Kow [1] | OTV [2] [ppm] |
| --- | --- | --- |
| CC(C)=C[C@H]1C[C@@H](C)CCO1 [Example 1, Rose oxide] | 3.58 | 0.5 |
| CC(C)=CCCC1=CC[C@](C)(C=O)CC1 [Example 6, Pre-cyclemone B] | 5.19 | 0.5 |
| CCCCC/C=C\CCC=O [Example 10, cis-4-Decenal] | 3.55 | 0.2 |
| C=CCOC(=O)COCCC(C)C [Example 7, Allyl amyl glycolate] | – | 0.1 |
| CCOC(=O)[C@H]1O[C@@]1(C)c1ccccc1 [Example 2, Aldehyde C16] | 3 | 0.2 |
| COc1nccnc1CC(C)C [Example 9, 2-Isobutyl-3-methoxypyrazine] | 2.86 | 0.1 |
| CC(C)=CCC[C@@H](C)CC#N [Example 3, citronellylnitrile] | 3.55 | 1 |
